In the supplement of paper PMC4862054:

Legend:
Details in all cases: 72 h
[1] = test system: BT-474
Protocol: (§1)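 Drug sensitivity and resistance testing (DSRT) of breast cancer cell lines in 384-well plates, 5 concentrations in 10-fold dilutions over a compound-specific 10,000-fold range. After 72 h, cytotoxicity was read by CellTox Green fluorescence and viability by CellTiter-Glo luminescence (multiplexed), normalised to DMSO and benzethonium chloride controls. EC50 is the inflection point of the fitted dose-response curve (bottom asymptote free, so it can be relative for partial curves) and is censored at the highest tested concentration. Rows with DSS 0 (no meaningful response) were excluded.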

[2] = test system: CAL-148
Protocol: as §1

[3] = test system: CAL-85-1
Protocol: as §1

[4] = test system: HCC1937
Protocol: as §1

[5] = test system: MCF-10A
Protocol: as §1

[6] = test system: MDA-MB-231
Protocol: as §1

[7] = test system: MDA-MB-436
Protocol: as §1

[8] = test system: MDA-MB-453
Protocol: as §1

[9] = test system: MDA-MB-468
Protocol: as §1

[10] = test system: BT-549
Protocol: as §1

[11] = test system: CAL-120
Protocol: as §1

[12] = test system: CAL-51
Protocol: as §1

[13] = test system: DU-4475
Protocol: as §1

[14] = test system: HCC1143
Protocol: as §1

[15] = test system: HCC1599
Protocol: as §1

[16] = test system: HDQ-P1
Protocol: as §1

[17] = test system: Hs578T
Protocol: as §1

[18] = test system: MFM-223
Protocol: as §1

[19] = test system: CAL-148; remark: listed apart in the source
Method in brief: (§2)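 EC50 is the value from a fitted percent-inhibition dose-response curve, censored at the highest concentration, and rows with zero drug sensitivity score were not kept. The underlying assay seeded breast cancer cell lines in 20 µl onto 384-well plates pre-loaded with compound in 5 µl medium for 72 h. Viability was then read by CellTiter-Blue fluorescence at 560/590 nm after 2 h at 37 °C, with each plate normalised to vehicle and a positive kill control.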

[20] = test system: BT-474; remark: listed apart in the source
Method in brief: as §2

[21] = test system: BT-549; remark: listed apart in the source
Method in brief: as §2

[22] = test system: CAL-120; remark: listed apart in the source
Method in brief: as §2

[23] = test system: HCC1143; remark: listed apart in the source
Method in brief: as §2

[24] = test system: HCC1937; remark: listed apart in the source
Method in brief: as §2

[25] = test system: Hs578T; remark: listed apart in the source
Method in brief: as §2

[26] = test system: MDA-MB-231; remark: listed apart in the source
Method in brief: as §2

[27] = test system: MDA-MB-436; remark: listed apart in the source
Method in brief: as §2

[28] = test system: MDA-MB-468; remark: listed apart in the source
Method in brief: as §2

[29] = test system: MFM-223; remark: listed apart in the source
Method in brief: as §2

[30] = test system: SK-BR-3
Method in brief: as §2

[31] = test system: HCC1599; remark: listed apart in the source
Method in brief: as §2

Row | Compound | EC50, CellTox Green [1] [nM] | EC50, CellTox Green [2] [nM] | EC50, CellTox Green [3] [nM] | EC50, CellTox Green [4] [nM] | EC50, CellTox Green [5] [nM] | EC50, CellTox Green [6] [nM] | EC50, CellTox Green [7] [nM] | EC50, CellTox Green [8] [nM] | EC50, CellTox Green [9] [nM] | EC50, CellTox Green [10] [nM] | EC50, CellTox Green [11] [nM] | EC50, CellTox Green [12] [nM] | EC50, CellTox Green [13] [nM] | EC50, CellTox Green [14] [nM] | EC50, CellTox Green [15] [nM] | EC50, CellTox Green [16] [nM] | EC50, CellTox Green [17] [nM] | EC50, CellTox Green [18] [nM] | EC50, CellTiter-Blue viability [19] [nM] | EC50, CellTiter-Blue viability [20] [nM] | EC50, CellTiter-Blue viability [21] [nM] | EC50, CellTiter-Blue viability [22] [nM] | EC50, CellTiter-Blue viability [23] [nM] | EC50, CellTiter-Blue viability [24] [nM] | EC50, CellTiter-Blue viability [25] [nM] | EC50, CellTiter-Blue viability [26] [nM] | EC50, CellTiter-Blue viability [27] [nM] | EC50, CellTiter-Blue viability [28] [nM] | EC50, CellTiter-Blue viability [29] [nM] | EC50, CellTiter-Blue viability [30] [nM] | EC50, CellTiter-Blue viability [31] [nM]
1 | COc1cc2c(NC3CCN(C(C)C)CC3)nc(N3CCC(F)(F)CC3)nc2cc1OCCCN1CCCC1 [UNC0642] | 2680 | 8400 | 2490 | 7070 | 4920 | 2090 | 20.9 | 7170 | 3390 |  |  |  |  |  |  |  |  |  |  |  |  |  |  |  |  |  |  |  |  |  | 
2 | CCOC(=O)CCNc1cc(N2CCc3ccccc3CC2)nc(-c2ccccn2)n1 [GSK-J4] | 2590 | 10900 | 4080 | 24100 | 18100 | 11300 | 21200 | 22600 | 8140 | 17800 | 20000 | 9960 | 5920 | 321 | 5440 | 9770 | 2280 | 17400 |  |  |  |  |  |  |  |  |  |  |  |  | 
3 | CO[C@H]1C[C@@H]2CC[C@@H](C)[C@@](O)(O2)C(=O)C(=O)N2CCCC[C@H]2C(=O)O[C@H]([C@H](C)C[C@@H]2CC[C@@H](OP(C)(C)=O)[C@H](OC)C2)CC(=O)[C@H](C)/C=C(\C)[C@@H](O)[C@@H](OC)C(=O)[C@H](C)C[C@H](C)/C=C/C=C/C=C/1C [Ridaforolimus] |  |  |  |  |  |  | 64.5 |  |  |  |  |  |  |  |  | 0.35 |  |  | 0.64 | 0.55 | 0.19 | 1 | 1 | 1.12 | 0.48 | 0.95 | > 1000 | 0.39 | 0.24 | 1.36 | 
4 | Nc1cc(C(F)(F)F)c(-c2cc(N3CCOCC3)nc(N3CCOCC3)n2)cn1 [Buparlisib] | 5170 |  |  |  | 8430 | 3580 |  |  |  | 7700 |  | 2900 |  |  |  |  | 5580 |  |  |  |  |  |  |  |  |  |  |  |  |  | 
5 | O=C(/C=C/c1cccc(S(=O)(=O)Nc2ccccc2)c1)NO [Belinostat] | 1600 | 1070 | 1010 |  | 30.4 | 261 |  | > 10000 | 3690 |  | 1410 | 680 | 519 |  |  |  | 1260 | 745 | 322 | 889 | 1890 | 204 | 971 | 578 | 1890 | 684 | 553 | 1940 | 605 | 200 | 348
6 | Cc1[nH]c2ccccc2c1CCNCc1ccc(/C=C/C(=O)NO)cc1 [Panobinostat] | 27.8 | 18.6 | 33.2 | 71 | 579 | 21.6 |  | 43 | 133 |  | 68.4 | 30.8 | 20.2 | 71.7 | 112 | 193 | 28.6 | 182 | 12.9 | 28.6 | 125 | 11.1 | 27.4 | 14.6 | 26.2 | 32.6 | 107 | 88.3 | 39.9 | 10.2 | 24.1
7 | CC(C)C[C@@H](C(=O)N[C@H](C(=O)OC1CCCC1)c1ccccc1)[C@H](O)C(=O)NO [Tosedostat] | 1560 |  | 140 |  |  | 52.9 | 9.14 |  | 151 | 1390 | 163 | 35.5 |  | 7200 |  | 851 | > 10000 |  | 2750 |  | 273 | 16.7 | 189 | 121 | 2140 | 92.4 | 2740 | 35.9 | 2230 |  | 
8 | COCC[n+]1c2c(n(Cc3cnccn3)c1C)C(=O)c1ccccc1C2=O [YM155] | 17.9 | 34.2 | 5.8 | 24.8 | 12.8 | 14.4 | 24.2 | 347 | 9.24 | 272 | 6.34 | 30.2 | 418 | 1.59 | 58.5 | 33 | 2600 | 836 | 11.6 | 19.4 | 50.8 | 3.68 | 26.2 | 4.46 | 102 | 2.85 | 7.68 | 2.99 | 17.3 | 8.44 | 12
9 | COC(=O)c1ccc2c(c1)NC(=O)/C2=C(\Nc1ccc(N(C)C(=O)CN2CCN(C)CC2)cc1)c1ccccc1 [Nintedanib] | 2540 |  |  | 1650 | 7350 | 2190 | 8830 |  | 5880 | 6880 |  | 2950 |  |  |  |  |  |  |  |  |  |  |  |  |  |  |  |  |  |  | 
